According to patent publication US20100028395A1, “COMPOSITIONS CONTAINING N-ACETYLGLUCOSAMINE FOR USE IN DERMO-COSMETOLOGY AND AESTHETIC MEDICINE” (ROTTAPHARM S.P.A., priority 2007, published 2010):

Experiments:
[1] = system: Human fibroblasts, Detroit 551 ATCC CCL III; experiment: Stimulation of HA synthesis in human fibroblast cultures (EIA HA assay); type: cell-based; conditions: for HA(ng/well) (Diff. from baseline) / HA (%) (Diff. from baseline): 48 h; for HA (%) from NAG (consistent doses): see Table 2
Text: The test has been conducted in two stages, i.e.: • stage A: in which the stimulation of HA expression by COMBI has been evaluated while maintaining the concentration constant and varying the reciprocal quantities of its components. The concentration used has been selected so as to enable comparison with the results derived from stage B; • stage B: in which the effect of CA on HA expression has been evaluated by varying its concentration and in comparison with doses consistent with its components. […] Human fibroblasts have been grown in suitable growth medium (Eagle's minimal essential medium) supplemented with 10% foetal calf serum (FCS), 1 mM sodium pyruvate, 2 mM glutamine, non-essential aminoacids and 50 μg/ml glutamycin. […] After 48 hours, the supernatant has been removed and used for the determination of the parameters of interest. The test has been conducted in duplicate and untreated cell cultures have been used as controls. HA has been assayed (dosed) by means of an immuno-enzymatic test using a commercially available kit (EIA, Corgenix). De novo HA synthesis has been evaluated in the culture medium following treatment with the test substances, according to the protocol provided with the test, and against the calibration curve obtained using the HA standard contained in the kit. […] • evaluation of the effects of the substances tested, at the various concentrations, on fibroblast cultures has been expressed as the absolute and percent increase or decrease of the HA expression, with respect to the corresponding control culture, after 48 hours of incubation. The percentage difference increase or decrease of the effects exerted by CA and NAG, at corresponding concentrations, have then been calculated, with evaluation of their potential significance by means of the Student's “t” test.

[2] = system: Human fibroblasts, Detroit 551 ATCC CCL III; experiment: Stimulation of collagen synthesis in human fibroblast cultures (Sircol assay); type: cell-based; conditions: 24 h
Text: The scope of the test has been the evaluation and the comparison of the potential stimulation exerted by the test substances on the expression of collagen and elastin in “in vitro” cultures of skin-derived cells, such as fibroblasts. The test in question, even though conducted “in vitro”, can be considered to be predictive of the effects of use of the same substances “in vivo”. […] The samples have been dissolved directly in the culture medium. Each sample has been tested in duplicate and the experiments have been repeated twice. The parameters of interest have been determined after 24 hours on separate plates. Untreated cell cultures have been used as controls. A commercially available kit (Sircol™, biodye science) which uses the capacity of the stain Sirius Red to interact with the basic side chains of the aminoacids present in collagen itself, has been used for collagen assays. De novo collagen synthesis has been evaluated in the culture medium following treatment with the test substances, following the protocol provided with the kit, and by using the calibration curve obtained employing the collagen standard contained in turn in the kit. Evaluation of the effects of the substances tested, at the various concentrations, on fibroblast cultures, has been expressed as the absolute and percent increase or decrease of collagen and elastin expression, with respect to the corresponding control culture, after 24 hours of incubation. The percentage difference increase or decrease of the effects exerted by CA and NAG, at corresponding concentrations, have then been calculated, with consequent evaluation of their potential statistical significance by means of the test Student “t” test.

[3] = system: hyaluronate synthetase; conditions: plasma membrane fractions of human skin fibroblasts; cited from earlier work
[4] = system: MatTek Human Skin EpiDemFT skin model; conditions: addition of NAG to in vitro skin model; cited from earlier work
[5] = system: Human fibroblasts, Detroit 551 ATCC CCL III; experiment: Stimulation of elastin synthesis in human fibroblast cultures (Fastin assay); type: cell-based; conditions: 24 h
Text: The scope of the test has been the evaluation and the comparison of the potential stimulation exerted by the test substances on the expression of collagen and elastin in “in vitro” cultures of skin-derived cells, such as fibroblasts. The test in question, even though conducted “in vitro”, can be considered to be predictive of the effects of use of the same substances “in vivo”.
Human fibroblasts, Detroit 551 ATCC CCL III from LGC Promochem (Milan, Italy) have been used.
The substances and concentrations tested have been the same as those already described for stage B of the test on the stimulation of HA expression, i.e.: • CA: 0.66, 1.32, 1.98, 2.64 and 3.3 mg/ml • NAG: 0.5, 1.0, 1.5, 2.0 and 2.5 mg/ml • ASS: 0.16, 0.32, 0.48, 0.64 and 0.80 mg/ml
Cells have been plated out in 96 well plates, 2500 cells/well for 24 hours in cell growth medium ([…], DMEM)+10% foetal calf serum (FCS). Fresh culture medium, enriched with just 5% FCS and containing the substances to be tested, so as to reach the final concentrations desired, has then been added. The samples have been dissolved directly in the culture medium. Each sample has been tested in duplicate and the experiments have been repeated twice. The parameters of interest have been determined after 24 hours on separate plates. Untreated cell cultures have been used as controls.
Elastin has been assayed using a commercially available test (Fastin™, biodye science). The assay is based on the interaction of 5,10,15,20-tetraphenyl-21,23-porphyrin with elastin molecules.
De novo elastin synthesis has been evaluated in the culture medium following treatment with the test substances, following the protocol provided with the test, and by using the calibration curve obtained employing the elastin standard contained in the kit itself.
Evaluation of the effects of the substances tested, at the various concentrations, on fibroblast cultures, has been expressed as the absolute and percent increase or decrease of collagen and elastin expression, with respect to the corresponding control culture, after 24 hours of incubation.
The percentage difference increase or decrease of the effects exerted by CA and NAG, at corresponding concentrations, have then been calculated, with consequent evaluation of their potential statistical significance by means of the test Student “t” test.

CC(=O)N[C@@H](C=O)[C@@H](O)[C@H](O)[C@H](O)CO [NAG, N-acetyl-2-amino-2 deoxyglucose]
HA(ng/well) (Diff. from baseline) ([1]; NAG 0.50 mg/ml): +54 ng/well | HA (%) (Diff. from baseline) ([1]; NAG 1.00 mg/ml): +58.98% | HA(ng/well) (Diff. from baseline) ([1]; NAG 1.00 mg/ml): +289 ng/well | HA (%) (Diff. from baseline) ([1]; NAG 1.50 mg/ml): +76.12% | HA(ng/well) (Diff. from baseline) ([1]; NAG 1.50 mg/ml): +373 ng/well | HA (%) (Diff. from baseline) ([1]; NAG 2.00 mg/ml): +78.78% | HA(ng/well) (Diff. from baseline) ([1]; NAG 2.00 mg/ml): +386 ng/well | HA (%) (Diff. from baseline) ([1]; NAG 2.50 mg/ml): +96.73% | HA(ng/well) (Diff. from baseline) ([1]; NAG 2.50 mg/ml): +474 ng/well | HA (%) from NAG (consistent doses) ([1]; NAG alone at 0.93 mg/ml (content of 1:3.5 combination)): ≈59% | HA (%) from NAG (consistent doses) ([1]; NAG alone at 1.71 mg/ml (content of 1:0.5 combination)): +76.12-+78.8% | Collagen (%) (Diff. from baseline) ([2]; NAG 0.50 mg/ml): +1.64% | Collagen(μg/ml) (Diff. from baseline) ([2]; NAG 0.50 mg/ml): +0.07 μg/ml | Collagen (%) (Diff. from baseline) ([2]; NAG 1.00 mg/ml): +30.28% | Collagen(μg/ml) (Diff. from baseline) ([2]; NAG 1.00 mg/ml): +1.29 μg/ml | Collagen (%) (Diff. from baseline) ([2]; NAG 1.50 mg/ml): +36.15% | Collagen(μg/ml) (Diff. from baseline) ([2]; NAG 1.50 mg/ml): +1.54 μg/ml | Collagen (%) (Diff. from baseline) ([2]; NAG 2.00 mg/ml): +32.86% | Collagen(μg/ml) (Diff. from baseline) ([2]; NAG 2.00 mg/ml): +1.33 μg/ml | Collagen (%) (Diff. from baseline) ([2]; NAG 2.50 mg/ml): +47.65% | Collagen(μg/ml) (Diff. from baseline) ([2]; NAG 2.50 mg/ml): +2.03 μg/ml | activity of the enzyme hyaluronate synthetase [3]: stimulates | increase of HA [4]: very high, significant and dose dependent increase | increase of pro-collagen 1 [4]: very high, significant and dose dependent increase | Elastin (μg/ml) (Diff. from baseline) ([5]; NAG 0.50 mg/ml): +11.21 μg/ml | Elastin (μg/ml) (Mean ± st. dev.) ([5]; NAG 0.50 mg/ml): 16.29 ± 0.83 µg/mL | Elastin (%) (Diff. from baseline) ([5]; NAG 1.00 mg/ml): +278.94% | Elastin (μg/ml) (Diff. from baseline) ([5]; NAG 1.00 mg/ml): +14.17 μg/ml | Elastin (μg/ml) (Mean ± st. dev.) ([5]; NAG 1.00 mg/ml): 19.25 ± 0.99 µg/mL | Elastin (%) (Diff. from baseline) ([5]; NAG 1.50 mg/ml): +320.28% | Elastin (μg/ml) (Diff. from baseline) ([5]; NAG 1.50 mg/ml): +16.27 μg/ml | Elastin (μg/ml) (Mean ± st. dev.) ([5]; NAG 1.50 mg/ml): 21.35 ± 1.01 µg/mL | Elastin (%) (Diff. from baseline) ([5]; NAG 2.00 mg/ml): +345.27% | Elastin (μg/ml) (Diff. from baseline) ([5]; NAG 2.00 mg/ml): +17.54 μg/ml | Elastin (μg/ml) (Mean ± st. dev.) ([5]; NAG 2.00 mg/ml): 22.62 ± 1.03 µg/mL | Elastin (μg/ml) (Diff. from baseline) ([5]; NAG 2.50 mg/ml): +17.22 μg/ml | Elastin (μg/ml) (Mean ± st. dev.) ([5]; NAG 2.50 mg/ml): 22.30 ± 1.04 µg/mL
